Assay results published in ChEMBL document CHEMBL1201862, “PubChem BioAssay data set” (2004).
The source made the active and inactive calls.

Experiments:
[1] = target: T1, Polyadenylate-binding protein 1 (Homo sapiens, UniProt P11940); experiment: PABP1 MLLE–PAM2 interaction inhibitors, dose response, miRNA deadenylation inhibitor project, biochemical, fluorescence polarization, Cy5-PAM2 peptide, secondary (AID 602260); type: functional; conditions: read-out: IC50_Mean
[2] = target: T1, Polyadenylate-binding protein 1; experiment: PABP1 MLLE–PAM2 binding inhibitor potency, dose response, biochemical, fluorescence polarization, FITC-PAM2 peptide (AID 602259); type: functional; conditions: read-out: IC50_Mean
[3] = tested on: Streptococcus sp. 'group A'; experiment: growth inhibition of control SK(-) GAS strain, dose response, counter-screen for streptokinase expression inhibitor project, luminescence, kanamycin, BacTiterGlo, confirmation (AID 1900); type: functional, organism-based
Streptokinase A = target: T2, Streptokinase A (Streptococcus pyogenes serotype M1, UniProt P10520); experiment: S. pyogenes streptokinase expression inhibitors, potency, dose response, plasminogen activation absorbance, OD405 (AID 1914); type: functional, Streptococcus pyogenes M1 GAS;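 also: secreted streptokinase activity via plasminogen activation per viability signal from cell pellet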
T2 sequence (P10520 whole entry): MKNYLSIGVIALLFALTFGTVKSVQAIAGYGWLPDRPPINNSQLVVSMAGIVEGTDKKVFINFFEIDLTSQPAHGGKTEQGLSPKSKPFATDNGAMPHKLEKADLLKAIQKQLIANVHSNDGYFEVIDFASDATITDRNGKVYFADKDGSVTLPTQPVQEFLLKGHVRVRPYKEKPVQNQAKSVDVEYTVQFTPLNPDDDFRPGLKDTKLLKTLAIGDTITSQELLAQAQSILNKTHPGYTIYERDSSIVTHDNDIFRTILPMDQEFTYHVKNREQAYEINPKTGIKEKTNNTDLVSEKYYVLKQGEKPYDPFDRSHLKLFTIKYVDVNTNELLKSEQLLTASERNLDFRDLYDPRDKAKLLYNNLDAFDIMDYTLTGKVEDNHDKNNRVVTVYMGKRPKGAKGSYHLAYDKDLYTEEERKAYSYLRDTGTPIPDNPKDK

Streptococcus = experiment: Group A Streptococcus viability loss, dose response, counter-screen for streptokinase expression inhibitor project, luminescence, BacTiterGlo (AID 1915); type: functional, organism-based;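 also: potency for reduction of bacterial viability or growth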
Genome polyprotein = Genome polyprotein (dengue virus type 2, UniProt P29990); experiment: Dengue-2 NS5 methyltransferase inhibitors, primary screen, biochemical, confirmation dose response (AID 588689); type: functional
Sequence of Genome polyprotein (P29990 2492-3391 limits assumed): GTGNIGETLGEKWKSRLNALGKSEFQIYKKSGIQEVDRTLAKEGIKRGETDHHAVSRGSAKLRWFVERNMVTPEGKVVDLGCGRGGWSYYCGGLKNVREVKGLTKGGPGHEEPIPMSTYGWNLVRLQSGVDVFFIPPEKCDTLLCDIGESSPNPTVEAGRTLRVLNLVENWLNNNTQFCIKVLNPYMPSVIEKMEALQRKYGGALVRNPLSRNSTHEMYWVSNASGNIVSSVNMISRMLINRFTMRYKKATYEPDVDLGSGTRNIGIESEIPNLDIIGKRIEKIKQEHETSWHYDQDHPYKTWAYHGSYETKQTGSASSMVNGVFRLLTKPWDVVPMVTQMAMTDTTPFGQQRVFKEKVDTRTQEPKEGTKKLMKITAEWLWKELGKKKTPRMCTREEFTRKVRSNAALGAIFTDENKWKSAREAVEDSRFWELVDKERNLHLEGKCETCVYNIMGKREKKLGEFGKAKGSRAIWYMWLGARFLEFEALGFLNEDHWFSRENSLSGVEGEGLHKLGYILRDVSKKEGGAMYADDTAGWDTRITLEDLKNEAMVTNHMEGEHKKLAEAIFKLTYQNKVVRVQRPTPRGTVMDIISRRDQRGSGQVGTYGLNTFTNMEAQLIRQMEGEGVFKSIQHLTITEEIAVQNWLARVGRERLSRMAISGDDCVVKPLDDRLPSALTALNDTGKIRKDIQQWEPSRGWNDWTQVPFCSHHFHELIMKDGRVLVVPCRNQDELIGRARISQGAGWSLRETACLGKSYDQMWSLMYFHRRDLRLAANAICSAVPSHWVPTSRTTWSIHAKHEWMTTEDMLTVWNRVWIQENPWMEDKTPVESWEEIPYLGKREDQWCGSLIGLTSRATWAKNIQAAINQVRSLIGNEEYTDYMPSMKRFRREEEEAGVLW

[4] = target: T3, Calpain-2 catalytic subunit (Sus scrofa, UniProt P43367); experiment: pig calpain II inhibitor potency, dose response, biochemical, fluorogenic peptide substrate (AID 1420); type: functional
T3 sequence (P43367 whole entry): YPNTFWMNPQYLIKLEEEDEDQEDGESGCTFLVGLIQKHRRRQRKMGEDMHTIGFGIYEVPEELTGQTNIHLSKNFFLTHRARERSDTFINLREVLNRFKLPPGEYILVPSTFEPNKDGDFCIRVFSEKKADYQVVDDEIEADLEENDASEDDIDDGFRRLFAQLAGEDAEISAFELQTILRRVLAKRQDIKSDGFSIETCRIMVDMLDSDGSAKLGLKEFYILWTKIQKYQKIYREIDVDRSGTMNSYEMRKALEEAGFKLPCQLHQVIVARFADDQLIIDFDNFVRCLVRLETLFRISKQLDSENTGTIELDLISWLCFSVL

[5] = target: Induced myeloid leukemia cell differentiation protein Mcl-1 (Homo sapiens, UniProt Q07820); type: functional
Sequence of Induced myeloid leukemia cell differentiation protein Mcl-1 (Q07820 whole entry): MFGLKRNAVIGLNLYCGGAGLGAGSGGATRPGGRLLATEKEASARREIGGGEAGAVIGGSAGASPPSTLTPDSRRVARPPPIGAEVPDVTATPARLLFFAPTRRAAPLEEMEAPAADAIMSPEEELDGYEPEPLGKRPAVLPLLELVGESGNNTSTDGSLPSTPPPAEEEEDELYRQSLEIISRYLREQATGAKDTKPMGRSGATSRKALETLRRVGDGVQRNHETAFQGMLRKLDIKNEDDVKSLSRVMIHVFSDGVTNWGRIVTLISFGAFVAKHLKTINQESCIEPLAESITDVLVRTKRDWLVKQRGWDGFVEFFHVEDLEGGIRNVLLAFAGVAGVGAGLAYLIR

[6] = target: T4, Ubiquitin-conjugating enzyme E2 N (Homo sapiens, UniProt P61088); type: functional;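 also: Dose-response confirmation in a TR-FRET assay detecting UBC13-driven polyubiquitin chain formation, inhibition measured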
T4 sequence (P61088 whole entry): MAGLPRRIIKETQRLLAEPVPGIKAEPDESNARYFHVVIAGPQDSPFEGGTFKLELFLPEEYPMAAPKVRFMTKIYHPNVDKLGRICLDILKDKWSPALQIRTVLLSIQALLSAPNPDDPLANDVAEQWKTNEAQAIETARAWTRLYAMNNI

[7] = target: T5, Long-chain-fatty-acid--AMP ligase FadD28 (Mycobacterium tuberculosis, UniProt P9WQ59); experiment: Fluorescence polarization aasay to screen for inhibitors that compete for the binding of FadD28 to a bisubstrate Measured in Biochemical System Using Plate Reader - 2147-01_Inhibitor_Dose_CherryPick_Activity.; type: functional, Mycobacterium tuberculosis H37Rv
T5 sequence (P9WQ59 whole entry): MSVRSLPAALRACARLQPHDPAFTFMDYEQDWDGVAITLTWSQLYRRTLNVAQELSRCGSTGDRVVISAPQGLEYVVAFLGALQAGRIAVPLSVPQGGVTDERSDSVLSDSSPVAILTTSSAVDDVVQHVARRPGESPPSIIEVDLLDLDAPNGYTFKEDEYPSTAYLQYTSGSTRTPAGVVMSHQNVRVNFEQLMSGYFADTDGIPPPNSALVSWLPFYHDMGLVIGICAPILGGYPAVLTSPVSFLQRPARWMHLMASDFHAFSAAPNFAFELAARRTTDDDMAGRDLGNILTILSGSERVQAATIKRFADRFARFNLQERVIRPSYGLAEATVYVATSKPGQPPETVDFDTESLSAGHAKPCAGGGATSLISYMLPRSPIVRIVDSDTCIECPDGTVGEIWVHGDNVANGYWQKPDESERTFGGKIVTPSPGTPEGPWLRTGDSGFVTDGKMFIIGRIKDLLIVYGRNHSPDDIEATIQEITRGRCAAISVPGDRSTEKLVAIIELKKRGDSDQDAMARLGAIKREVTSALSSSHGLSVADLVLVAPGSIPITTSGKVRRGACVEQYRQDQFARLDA

[8] = target: T6, Rac GTPase-activating protein 1 (Homo sapiens, UniProt Q9H0H5); experiment: MgcRacGAP GTPase-activating activity inhibitors, confirmation, biochemical, ADP Hunter fluorescence, primary and confirmatory (AID 624330); type: functional
T6 sequence (Q9H0H5 whole entry): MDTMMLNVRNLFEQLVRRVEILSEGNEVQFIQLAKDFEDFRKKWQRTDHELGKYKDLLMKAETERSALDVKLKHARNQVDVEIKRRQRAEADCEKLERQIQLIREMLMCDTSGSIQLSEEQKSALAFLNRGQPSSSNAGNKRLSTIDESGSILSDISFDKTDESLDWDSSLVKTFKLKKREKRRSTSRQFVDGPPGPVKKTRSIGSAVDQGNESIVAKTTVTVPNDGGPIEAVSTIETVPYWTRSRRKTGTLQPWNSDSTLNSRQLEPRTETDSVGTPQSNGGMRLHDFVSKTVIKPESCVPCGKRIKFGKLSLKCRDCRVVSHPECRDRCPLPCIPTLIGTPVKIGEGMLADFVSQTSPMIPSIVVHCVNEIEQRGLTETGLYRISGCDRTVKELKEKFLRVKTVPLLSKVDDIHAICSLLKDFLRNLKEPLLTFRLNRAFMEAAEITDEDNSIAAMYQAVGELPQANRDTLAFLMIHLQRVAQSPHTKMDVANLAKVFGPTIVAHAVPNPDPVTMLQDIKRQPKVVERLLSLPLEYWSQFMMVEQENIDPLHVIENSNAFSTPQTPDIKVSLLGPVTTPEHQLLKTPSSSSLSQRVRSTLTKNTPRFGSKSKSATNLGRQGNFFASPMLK

Paired box protein Pax-8 = Paired box protein Pax-8 (Homo sapiens, UniProt Q06710); experiment: inhibitors of PAX8-driven TPO luciferase reporter, dose response, RMG-I cells, cherry-pick (AID 687027); type: functional, cell-based;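 also: luciferase reporter driven by Pax8 target thyroperoxidase promoter measured by SteadyGlo luminescence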
Sequence of Paired box protein Pax-8 (Q06710 whole entry): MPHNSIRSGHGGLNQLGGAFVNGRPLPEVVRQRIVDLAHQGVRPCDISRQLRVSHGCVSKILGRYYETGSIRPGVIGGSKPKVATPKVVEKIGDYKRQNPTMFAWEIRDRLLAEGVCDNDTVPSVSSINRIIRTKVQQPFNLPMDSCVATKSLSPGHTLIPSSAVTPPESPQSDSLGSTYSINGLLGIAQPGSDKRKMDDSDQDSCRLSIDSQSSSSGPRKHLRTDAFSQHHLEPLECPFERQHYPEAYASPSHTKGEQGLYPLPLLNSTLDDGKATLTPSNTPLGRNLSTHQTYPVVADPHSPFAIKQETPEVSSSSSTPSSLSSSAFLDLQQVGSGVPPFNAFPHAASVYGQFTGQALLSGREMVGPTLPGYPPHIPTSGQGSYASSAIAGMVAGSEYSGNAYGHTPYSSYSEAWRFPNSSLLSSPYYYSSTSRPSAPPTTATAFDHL

[9] = P. falciparum Dd2 growth inhibitors, dose response, SYBR Green, cherry-picked samples (AID 1159567); type: functional, cell-based
[10] = inhibitors of clade B AD8 Env fusion, dose response, cell-based, cherry-pick (AID 652062); type: functional;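 also: luciferase signal from cell-cell fusion driven by HIV-1 clade B AD8 Env; potency is for inhibitors of fusion seen as a drop in luminescence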
cells [11] = type: functional, cell-based
cells [12] = type: functional, cell-based; remark: listed apart in the source

T1 sequence (P11940 whole entry): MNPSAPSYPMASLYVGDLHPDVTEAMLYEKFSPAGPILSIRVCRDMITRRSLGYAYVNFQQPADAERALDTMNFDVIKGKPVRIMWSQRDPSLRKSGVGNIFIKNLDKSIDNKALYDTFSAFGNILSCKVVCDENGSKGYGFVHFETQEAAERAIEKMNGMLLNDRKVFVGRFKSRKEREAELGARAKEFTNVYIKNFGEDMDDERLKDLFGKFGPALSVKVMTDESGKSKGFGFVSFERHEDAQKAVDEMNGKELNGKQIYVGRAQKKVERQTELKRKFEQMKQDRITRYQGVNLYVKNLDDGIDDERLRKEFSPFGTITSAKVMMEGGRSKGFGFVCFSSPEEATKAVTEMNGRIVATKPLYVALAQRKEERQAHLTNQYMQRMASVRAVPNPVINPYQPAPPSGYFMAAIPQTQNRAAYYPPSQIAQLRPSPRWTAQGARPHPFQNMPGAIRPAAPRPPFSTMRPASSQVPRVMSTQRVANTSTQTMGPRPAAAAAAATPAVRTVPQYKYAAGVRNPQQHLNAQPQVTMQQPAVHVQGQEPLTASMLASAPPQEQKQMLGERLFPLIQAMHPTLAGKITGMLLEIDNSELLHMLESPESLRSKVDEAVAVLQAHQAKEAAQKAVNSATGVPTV

O=C(c1nc2ccccn2c1CN1CCCC(O)C1)N1CCN(C2CCCCC2)CC1 (stereo unspecified)
IC50 [1]: > 66 µM (inactive) | IC50 [2]: > 66 µM (inactive)

Cc1c(C(=O)NC(=S)Nc2ccc3c4c(cccc24)CC3)cccc1[N+](=O)[O-]
IC50 [1]: > 66 µM (inactive) | IC50 [2]: > 66 µM (inactive)

COCCNC(=O)c1c(NC(=O)c2ccco2)n(Cc2ccccc2)c2nc3ccccc3nc12
EC50 [3]: 12.8 µM (active) | EC50 (Streptokinase A): > 150 µM (not active) | EC50 (Streptococcus): > 150 µM (not active) | IC50 (Genome polyprotein): > 100 µM (active)

O=C1c2cccc3cccc(c23)C(=O)N1CCCN1CCN(c2ccc(F)cc2)CC1
IC50 [4]: 8.84 µM (not active)

O=C1NC(=S)N(c2ccccc2F)C(=O)/C1=C\c1cccs1
IC50 [5]: 2.07 µM (active) | IC50 (Genome polyprotein): 70.3 µM (active)

Cc1c(N2C(=O)/C(=C3\C(=O)N(CC(=O)O)c4ccccc43)SC2=S)c(=O)n(-c2ccccc2)n1C
IC50 [1]: > 66 µM (inactive) | IC50 [2]: > 66 µM (inactive)

Cc1cc2c(C)ccc(C)c2nc1SCC(=O)c1cccs1
IC50 [4]: < 0.4 µM (not active)

COC(=O)Nc1ccc(SCC(=O)c2cccc([N+](=O)[O-])c2)cc1
IC50 [1]: > 66 µM (inactive) | IC50 [2]: > 66 µM (inactive)

CCOCCCn1c(=N)c(S(=O)(=O)c2ccc(C)cc2)cc2c(=O)n3cc(C)ccc3nc21
IC50 [1]: > 66 µM (inactive) | IC50 [2]: 53.1 µM (inactive)

COc1cc(/C=C2/SC(NS(=O)(=O)Cc3ccccc3)=NC2=O)c([N+](=O)[O-])cc1OC
IC50 (Genome polyprotein): 76.1 µM (active)

COC(=O)C1=C(C)N(CC2CC2)C(NCc2cccc(C(F)(F)F)c2)=N[C@H]1c1ccccc1
IC50 [6]: > 20 µM (inactive)

O=C(O)c1ccccc1SC1CC(=O)N(c2ccc3c(c2)OCO3)C1=O (stereo unspecified)
IC50 [1]: > 66 µM (inactive) | IC50 [2]: > 66 µM (inactive)

COc1ccc(C(=O)OCC(=O)c2ccccc2)cc1S(=O)(=O)N1CCOCC1
AC50 [7]: > 100 µM (inactive)

COc1cccc(NC(=O)Cn2c(=O)oc3ccccc32)c1
AC50 [7]: 8.71 µM (active)

C=CCc1cc(C)ccc1OCCCn1ccnc1
IC50 [8]: 127 µM (active)

N#C/C(=C\c1cccs1)C(=O)c1ccccc1
IC50 (Genome polyprotein): > 100 µM (active)

COc1cccc(CNc2ccc(F)c([N+](=O)[O-])c2)c1O
IC50 [4]: 7.78 µM (active)

CCCCn1c(S)nnc1-c1csc(CCC)c1
IC50 [4]: 24.1 µM (not active)

Cc1cc(NC(=O)CSc2nc3sc4c(c3c(=O)n2C)CCCC4)no1
IC50 [4]: 25.2 µM (not active)

Cc1onc(-c2c(F)cccc2Cl)c1C(=O)NC(=S)NC1CCSC1=O (stereo unspecified)
IC50 [1]: > 66 µM (inactive) | IC50 [2]: > 66 µM (inactive)

CC[C@@H](C)[C@@H]1CN([C@@H](CN2CCC[C@H]2CN2C(N)=NC[C@H]2C(C)C)C(C)C)C(=N)N1CCCC1CCCC1
IC50 [6]: > 20 µM (inactive)

CC(C)(C)N(Cc1ccc2c(c1)OCO2)C(=O)/C=C\[S+]([O-])c1ccccc1 (stereo unspecified)
IC50 [8]: 125 µM (active) | AC50 (Paired box protein Pax-8): 6.14 µM (active)

CCC[C@@H](CN1CCC[C@H]1CN1C(N)=NC[C@H]1C(C)C)N1C[C@@H]([C@H](C)CC)N(CCCC2CCCC2)C1=N
IC50 [6]: > 20 µM (inactive)

O=C(CSc1nc(O)cc(=O)n1-c1ccccc1)Nc1nc2ccccc2s1
AC50 [7]: 32 µM (active)

COc1ccc2c(c1)Cc1cc(NC(=O)c3ccccc3-c3ccccc3C(=O)O)ccc1-2
IC50 (Genome polyprotein): 46.3 µM (active) | AC50 [7]: 89.9 µM (active)

COc1ccccc1N1CCN(C(=O)[C@H](C)NS(=O)(=O)c2ccc3c(c2)OCCCO3)CC1
IC50 [1]: > 66 µM (inactive) | IC50 [2]: > 66 µM (inactive)

C[C@@H]1CN([C@H](C)CO)C(=O)c2c(c3ccccc3n2C)-c2ccccc2CO[C@H]1CN(C)Cc1ccc(Oc2ccccc2)cc1
AC50 [9]: 3.03 µM (active)

COc1ccc(NC(=O)C2(C)CCN2Cc2ccccc2OC(F)F)cc1OC (stereo unspecified)
AC50 [10]: 55.5 µM (active)

COc1cc(/C=N/NC(=O)CNC(=O)c2ccc3c(c2)OCCO3)ccc1O
IC50 [8]: 54.9 µM (active)

Oc1nncc(N/N=C\c2cccs2)c1Cl
IC50 (cells [11]): > 29.9 µM (inactive) | EC50 (cells [12]): > 29.9 µM (inactive)

COc1ccc2c3c([nH]c2c1)[C@H](CO)N(Cc1cc(F)ccc1F)CC31CCN(C(C)=O)CC1
AC50 [9]: 3.39 µM (active)

COc1ccc2c3c(n(C)c2c1)[C@H](CO)N(C(=O)Nc1cccc(F)c1)CC31CN(C)C1
AC50 [9]: 5.83 µM (active)

CO[C@H]1CN(C)C(=O)c2ccc(NC(=O)c3nc4ccccc4s3)cc2OC[C@H](C)N(Cc2ccncc2)C[C@@H]1C
AC50 [9]: 5.3 µM (active)

CCCNC(=O)N1CC(=O)N2[C@@H](CO)[C@@H](c3ccc(C#Cc4cccc(OC)c4)cc3)[C@@H]2C1
AC50 [9]: 17 µM (active)

COc1ccc2c3c([nH]c2c1)[C@@H](CO)N(Cc1ccccc1F)CC31CN(C(=O)C2CCCC2)C1
AC50 [9]: 6.64 µM (active)

O=c1c(-c2ccc(O)cc2)coc2cc(O)ccc12 [DAIDZEIN]
IC50 [8]: 91.3 µM (active)
